Laboratory results as given in BindingDB's records for patent US20250059213 (Pretzel Therapeutics, 2025).
pIC50: −log10 of the molar value.

Target: T1, Lon protease homolog, mitochondrial (Homo sapiens, UniProt P36776)
T1 sequence (P36776 whole entry): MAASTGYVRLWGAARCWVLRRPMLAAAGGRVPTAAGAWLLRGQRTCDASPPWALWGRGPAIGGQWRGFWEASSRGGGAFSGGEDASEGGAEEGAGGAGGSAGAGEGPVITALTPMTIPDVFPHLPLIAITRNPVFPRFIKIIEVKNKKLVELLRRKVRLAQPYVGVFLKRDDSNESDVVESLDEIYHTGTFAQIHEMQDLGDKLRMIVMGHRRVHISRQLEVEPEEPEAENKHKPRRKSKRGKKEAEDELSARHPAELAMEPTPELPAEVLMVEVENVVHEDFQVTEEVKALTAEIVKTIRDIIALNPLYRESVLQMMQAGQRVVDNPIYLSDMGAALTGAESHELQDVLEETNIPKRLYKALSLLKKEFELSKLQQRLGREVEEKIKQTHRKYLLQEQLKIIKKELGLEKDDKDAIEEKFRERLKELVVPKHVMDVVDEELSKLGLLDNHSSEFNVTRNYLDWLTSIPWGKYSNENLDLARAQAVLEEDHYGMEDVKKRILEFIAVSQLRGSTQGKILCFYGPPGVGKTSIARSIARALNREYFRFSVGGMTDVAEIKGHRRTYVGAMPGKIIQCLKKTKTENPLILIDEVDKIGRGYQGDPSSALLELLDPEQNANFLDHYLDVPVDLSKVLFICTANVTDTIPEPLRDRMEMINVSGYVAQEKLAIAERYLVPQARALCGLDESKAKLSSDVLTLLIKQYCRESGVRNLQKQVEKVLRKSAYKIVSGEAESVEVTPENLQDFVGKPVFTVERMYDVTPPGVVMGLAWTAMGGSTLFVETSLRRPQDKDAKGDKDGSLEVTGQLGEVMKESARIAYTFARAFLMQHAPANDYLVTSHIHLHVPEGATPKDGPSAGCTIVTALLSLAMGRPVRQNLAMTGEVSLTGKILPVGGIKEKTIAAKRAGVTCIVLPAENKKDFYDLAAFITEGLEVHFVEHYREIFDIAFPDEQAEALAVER
Test: FRET-Based Assay
Description: The LONP1-containing mix (10 μL) was incubated with the test compound for 15 min at 37° C. before adding the peptide-containing mix (5 μL). Solutions were dispensed using a small cassette-Multidrop Combi (Thermo Scientific).

COCC[C@@H](NC(=O)c1cnccn1)C(=O)N[C@@H](CCCc1ccccc1)B(O)O [US20250059213, Compound 13]
pIC50: > 7.30
